Results reported in ChEMBL document CHEMBL1201862, “PubChem BioAssay data set” (2004).
Calls of active or inactive are those of the source.

How the values were obtained:
[1] = ADAM10 inhibitors, peptide cleavage, dose response, biochemical, QFRET (AID 743254);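 also: ADAM10 enzyme with the DM2 quenched FRET peptide as substrate; EDANS fluorescence gain as the protease cuts the substrate; inhibitor potency against ADAM10 proteolytic activity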
[2] = target: Disintegrin and metalloproteinase domain-containing protein 17 (Homo sapiens, UniProt P78536); assay: ADAM17 protease inhibitors, dose response, counter-screen for ADAM10 exosite inhibitor project, biochemical, quenched FRET substrate (AID 743253)
Disintegrin and metalloproteinase domain-containing protein 17, sequence (P78536 whole entry, the tested form may be a part): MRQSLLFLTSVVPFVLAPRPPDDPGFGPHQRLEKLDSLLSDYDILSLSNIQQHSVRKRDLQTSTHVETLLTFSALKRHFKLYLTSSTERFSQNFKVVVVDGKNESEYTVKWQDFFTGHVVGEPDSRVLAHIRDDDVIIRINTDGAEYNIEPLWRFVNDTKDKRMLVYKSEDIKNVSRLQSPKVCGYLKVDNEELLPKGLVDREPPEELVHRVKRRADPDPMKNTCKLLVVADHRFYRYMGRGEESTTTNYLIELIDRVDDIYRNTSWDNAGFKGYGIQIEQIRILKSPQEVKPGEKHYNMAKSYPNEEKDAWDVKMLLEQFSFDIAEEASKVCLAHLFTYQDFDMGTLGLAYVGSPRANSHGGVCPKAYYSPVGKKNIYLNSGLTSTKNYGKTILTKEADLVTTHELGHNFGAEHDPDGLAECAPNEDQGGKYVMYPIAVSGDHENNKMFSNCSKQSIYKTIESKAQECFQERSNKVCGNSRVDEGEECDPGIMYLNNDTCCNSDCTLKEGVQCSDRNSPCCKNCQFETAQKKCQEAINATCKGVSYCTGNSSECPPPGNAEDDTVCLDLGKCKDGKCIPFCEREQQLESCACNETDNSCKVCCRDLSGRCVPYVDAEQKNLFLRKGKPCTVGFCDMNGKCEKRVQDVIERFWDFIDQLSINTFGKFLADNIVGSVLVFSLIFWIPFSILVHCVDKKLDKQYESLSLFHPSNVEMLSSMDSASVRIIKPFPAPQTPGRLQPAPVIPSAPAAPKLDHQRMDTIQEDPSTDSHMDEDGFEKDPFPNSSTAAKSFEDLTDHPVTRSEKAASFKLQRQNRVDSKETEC

[3] = inhibitors of firefly luciferase expression or activity, dose response, H4 neuroglioma cells, luminescence (AID 1990); type: functional, cell-based
[4] = Luminescence Cell-Based Dose Response HTS to Identify Inhibitors of 5'UTR Stem-Loop Driven Prion Protein mRNA Translation in H4 Neuroglioblastoma Cells. [Related pubchem assays: 1827 (Project Summary), 1813 (Primary HTS)]; type: functional
[5] = target: T1, Heat shock factor protein 1 (Mus musculus, UniProt P38532); assay: inhibition of MG132-induced HSE-luciferase signal, confirmation, cell-based, NIH3T3, luminescence, dose retest (AID 2382); type: functional;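 also: NIH3T3 fibroblasts with HSF1-driven luciferase reporter stressed by proteasome inhibitor MG132; luminescence from HSF1-driven luciferase expression after 8 hours of MG132 stress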
T1 sequence (P38532 whole entry): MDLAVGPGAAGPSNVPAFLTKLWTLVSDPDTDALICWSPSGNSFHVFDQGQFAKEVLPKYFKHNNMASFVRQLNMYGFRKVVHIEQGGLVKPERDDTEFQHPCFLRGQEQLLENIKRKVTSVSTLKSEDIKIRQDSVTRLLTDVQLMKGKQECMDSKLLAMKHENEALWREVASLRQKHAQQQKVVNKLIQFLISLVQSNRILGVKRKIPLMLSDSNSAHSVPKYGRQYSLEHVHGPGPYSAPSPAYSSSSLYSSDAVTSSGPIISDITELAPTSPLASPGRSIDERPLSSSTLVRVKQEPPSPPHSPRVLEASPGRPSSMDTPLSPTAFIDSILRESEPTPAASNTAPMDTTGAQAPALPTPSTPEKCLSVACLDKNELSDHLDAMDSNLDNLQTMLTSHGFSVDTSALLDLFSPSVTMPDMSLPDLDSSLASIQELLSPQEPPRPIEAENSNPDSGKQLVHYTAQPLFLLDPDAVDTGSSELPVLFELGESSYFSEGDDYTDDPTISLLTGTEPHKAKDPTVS

[6] = inhibitors of SNCA 5'UTR-driven reporter translation, confirmation, H4 neuroglioma cells, luminescence (AID 1988); type: functional, cell-based
[7] = A549 cell cytotoxicity, dose response, cytotoxicity control, plate reader, cherry-pick, antagonist series (AID 743412); type: functional, cell-based
[8] = HepG2 cell cytotoxicity, dose response, cytotoxicity control, plate reader, cherry-pick, antagonist series (AID 743416); type: functional, cell-based
[9] = LGR2 antagonists, dose response, cell-based, HEK293, CRE-luciferase reporter, cherry pick, set 2 (AID 743343); type: functional;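 also: transfected cells were stimulated with diluted bursicon conditioned medium after compound addition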
[10] = MC4R antagonists, dose response, counter-screen for LGR2 antagonist project, cell-based, plate reader, cherry pick (AID 743444); type: functional;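 also: transfected HEK 293 cells stimulated with alpha-MSH peptide; potency of inhibitors of the alpha-MSH evoked signal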
[11] = HEK293 cell cytotoxicity, dose response, cytotoxicity control, plate reader, cherry-picked samples (AID 743446); type: functional, cell-based
HEK293 = assay: inhibitors of LMP1-driven NF-kB reporter, dose response, cell-based, HEK293, luciferase, cherry-pick (AID 588343); type: functional; details: Homo sapiens
[12] = target: T2, Oxysterols receptor LXR-beta (Homo sapiens, UniProt P55055); type: functional, cell-based;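 also: Cell-based luminescence dose-response assay of agonist activity at LXR, run as a confirmatory counterscreen to a daf-12 agonist screen; HEK293 cells with Gal4-LXR fusion and GAL4-driven luciferase reporter; agonist potency from rising luciferase signal of a Gal4-LXR reporter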
T2 sequence (P55055 whole entry): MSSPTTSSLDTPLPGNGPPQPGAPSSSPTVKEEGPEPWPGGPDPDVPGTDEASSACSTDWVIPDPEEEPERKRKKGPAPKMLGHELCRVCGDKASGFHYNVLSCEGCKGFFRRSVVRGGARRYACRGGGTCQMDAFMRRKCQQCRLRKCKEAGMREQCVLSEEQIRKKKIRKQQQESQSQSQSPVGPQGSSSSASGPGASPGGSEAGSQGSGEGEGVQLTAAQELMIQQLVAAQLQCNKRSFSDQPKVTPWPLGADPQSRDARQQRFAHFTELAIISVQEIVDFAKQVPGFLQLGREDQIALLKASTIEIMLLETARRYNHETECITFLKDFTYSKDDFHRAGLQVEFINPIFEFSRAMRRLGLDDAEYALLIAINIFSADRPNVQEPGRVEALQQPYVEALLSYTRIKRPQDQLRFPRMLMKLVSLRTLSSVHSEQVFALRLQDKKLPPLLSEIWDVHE

cells [13] = assay: cells
[14] = target: T1, Heat shock factor protein 1; assay: HSF1 potentiators in luciferase reporter cells, confirmation, cell-based, NIH3T3, luminescence, dose retest (AID 435004); type: functional;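 also: stress induced by proteasome inhibitor MG132 added 30 min after compound; luciferase reporter driven by HSF1 response element in NIH3T3 cells; actives raise luminescence as potentiators of the MG132 stress response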
INS1 = assay: beta cell apoptosis inhibitors, cytokine rescue, dose response, luminescence, retest (AID 449756); type: functional, cell-based; details: Rattus norvegicus, INS1;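 also: cell death triggered by IL-1 beta plus TNF-alpha plus IFN-gamma mixture; protective hits raise ATP signal compared with cytokine alone wells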
Paired box protein Pax-8 = Paired box protein Pax-8 (Homo sapiens, UniProt Q06710); assay: inhibitors of PAX8-driven TPO luciferase reporter, dose response, RMG-I cells, cherry-pick (AID 687027); type: functional, cell-based;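 also: luciferase reporter driven by Pax8 target thyroperoxidase promoter measured by SteadyGlo luminescence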
Paired box protein Pax-8, sequence (Q06710 whole entry): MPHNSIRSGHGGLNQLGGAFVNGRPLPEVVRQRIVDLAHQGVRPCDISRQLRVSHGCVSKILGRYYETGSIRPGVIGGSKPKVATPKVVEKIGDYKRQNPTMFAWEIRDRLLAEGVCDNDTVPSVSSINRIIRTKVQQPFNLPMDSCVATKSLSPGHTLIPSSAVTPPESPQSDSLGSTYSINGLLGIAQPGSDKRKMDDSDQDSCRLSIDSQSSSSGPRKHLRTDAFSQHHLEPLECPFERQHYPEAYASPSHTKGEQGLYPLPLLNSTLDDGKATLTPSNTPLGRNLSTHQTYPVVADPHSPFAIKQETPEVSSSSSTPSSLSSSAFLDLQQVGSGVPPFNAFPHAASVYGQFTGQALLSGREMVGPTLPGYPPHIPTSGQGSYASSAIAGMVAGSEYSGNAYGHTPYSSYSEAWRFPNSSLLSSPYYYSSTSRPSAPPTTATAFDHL

[15] = PAX2 cell-based inhibition, dose response, selectivity assay for PAX8 inhibitor project, plate reader, dry powder samples (AID 743048); type: functional;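 also: HEK293 cells carrying a WT1 promoter luciferase reporter driven by expressed Pax2; potency is for inhibition of Pax2 driven reporter signal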
[16] = NIH:OVCAR-3 ovarian cancer cell cytotoxicity, dose response, PAX8 inhibitor project, plate reader, dry powder samples (AID 743044); type: functional, cell-based
[17] = PAX5 activity inhibitors, dose response, selectivity assay for PAX8 inhibitor project, cell-based, plate reader, dry powder samples (AID 743047); type: functional;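 also: HEK293 cells carrying a Pax5 driven CD19 promoter luciferase reporter; potency of inhibitors that lower reporter luminescence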
[18] = IGROV1 ovarian cancer cell cytotoxicity, dose response, PAX8 inhibitor project, plate reader, dry powder samples (AID 743043); type: functional, cell-based; details: IGROV-1
[19] = cytotoxicity in COV434 cells, dose response, cytotoxicity control for PAX8 inhibitor project, cell-based, plate reader, dry powder, SA7 (AID 743145); type: functional
[20] = cytotoxicity dependent on PAX8, dose response, cell-based, plate reader, dry powder (AID 743049); type: functional
cells [21] = type: functional, cell-based
cells [22] = type: functional, cell-based; remark: listed apart in the source
[23] = Shn3 3'UTR reporter inhibitors, dose response, cell-based, Clone20 osteoblasts, firefly luciferase, cherry-picked (AID 624132); type: functional;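 also: firefly luciferase luminescence from reporter carrying the Shn3 3'UTR in osteoblasts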
[24] = HepG2 cell cytotoxicity, dose response, cytotoxicity control for Shn3 inhibitor project, CellTiter-Glo, cherry-picked (AID 624134); type: functional, cell-based
[25] = control 3'UTR Renilla luciferase suppression, dose response, counter-screen for Shn3 inhibitor project, cell-based, Clone20-Shn3RL, cherry-picked (AID 624133); type: functional
[26] = cytotoxicity in COV362 ovarian cancer cells, dose response, cytotoxicity control for PAX8 inhibitor project, cell-based, plate reader, dry powder, SA12 (AID 743144); type: functional
[27] = A2780 ovarian cancer cell cytotoxicity, dose response, cytotoxicity control, plate reader, dry powder samples (AID 743046); type: functional, cell-based
[28] = cytotoxicity in OVCAR4 cells, dose response, cytotoxicity control for PAX8 inhibitor project, cell-based, plate reader, dry powder, SA11 (AID 743150); type: functional; details: OVCAR-4
[29] = cytotoxicity in OV-90 ovarian cancer cells, dose response, PAX8 inhibitor project, cell-based, plate reader, dry powder, SA8 (AID 743149); type: functional

Q: What does the source list for `CCC(=O)N(Cc1ccco1)c1nc(C(=O)Nc2ccc(Cl)cc2)c(C)s1`?
A: IC50 [1]: > 69.5 µM (inactive); IC50 [2]: > 69.5 µM (inactive)

Q: With `O=C(c1ccc(-c2nc3ccccc3s2)s1)N1CCOCC1` as the compound, how does the EC50 [3] read?
A: 1.42 µM (active)

Q: What about the EC50 [4] of the same compound?
A: 54 µM (active)

Q: What about the EC50 [5] of the same compound?
A: 1.07 µM (active)

Q: What about the EC50 [6] of the same compound?
A: 0.887 µM (active)

Q: What about the AC50 [7] of the same compound?
A: > 52 µM (inactive)

Q: What about the AC50 [8] of the same compound?
A: > 52 µM (inactive)

Q: What about the AC50 [9] of the same compound?
A: 1.49 µM (active)

Q: What about the AC50 [10] of the same compound?
A: 2.04 µM (active)

Q: And the AC50 [11]?
A: 51.4 µM (active)

Q: Which AC50 (HEK293) does the source give for `Cc1ccnc(NC(=O)c2ccc(C(=O)c3ccccc3)cc2)c1` here?
A: 3.28 µM (active)

Q: What about the AC50 [7] of the same compound?
A: > 52 µM (inactive)

Q: What about the AC50 [8] of the same compound?
A: > 52 µM (inactive)

Q: And the AC50 [9]?
A: 7.49 µM (active)

Q: What about the AC50 [10] of the same compound?
A: 5.18 µM (active)

Q: What about the AC50 [11] of the same compound?
A: 31.2 µM (active)

Q: For `Cn1c(=N)n(CC(=O)c2ccccc2)c2ccccc21`, which EC50 [4] is on record?
A: 8.25 µM (inconclusive)

Q: And the EC50 [12]?
A: > 67.5 µM (inactive)

Q: What about the EC50 (cells [13]) of the same compound?
A: > 67.5 µM (inactive)

Q: For `O=C(Nc1ccc(OCC(F)(F)C(F)F)c(C(F)(F)F)c1)c1ccccc1O`, which EC50 [14] is on record?
A: 67.4 µM (active)

Q: And the AC50 (INS1)?
A: 4.78 µM (active)

Q: What about the AC50 (Paired box protein Pax-8) of the same compound?
A: 7.06 µM (active)

Q: What about the AC50 [15] of the same compound?
A: 3.62 µM (active)

Q: And the AC50 [16]?
A: 14.8 µM (active)

Q: What about the AC50 [17] of the same compound?
A: 6.09 µM (active)

Q: What about the AC50 [18] of the same compound?
A: 48.2 µM (active)

Q: What about the AC50 [19] of the same compound?
A: 56.2 µM (active)

Q: What about the AC50 [20] of the same compound?
A: 17.8 µM (active)

Q: What does the source list for `Cc1cc(NC(=O)CCCS(=O)(=O)c2nc(-c3cccs3)cc(C(F)(F)F)n2)no1`?
A: EC50 (cells [21]): > 350 µM (not active); EC50 (cells [22]): > 350 µM (not active); AC50 [23]: 1.73 µM (active); AC50 [24]: 16.3 µM (active); AC50 [25]: 6.46 µM (active); AC50 (Paired box protein Pax-8): 6.85 µM (active); AC50 [15]: 17.3 µM (active); AC50 [26]: 14.3 µM (active); AC50 [27]: 10.3 µM (active); AC50 [16]: 15.5 µM (active); AC50 [18]: 16.4 µM (active); AC50 [28]: 20.8 µM (active); AC50 [19]: 12.1 µM (active); AC50 [29]: 26.3 µM (active); AC50 [20]: 18.6 µM (active)

Q: With `COc1cc(/C=N/OCC(=O)Nc2ccc(OC(F)F)cc2)ccc1OCc1ccccc1` as the compound, how does the IC50 [1] read?
A: > 69.5 µM (inactive)

Q: And the IC50 [2]?
A: > 69.5 µM (inactive)
